{"source": "ChEMBL document CHEMBL5550201", "about": "“Discovery of a Highly Potent, Selective and Efficacious USP7 Degrader for the Treatment of Acute Lymphoblastic Leukemia” (J Med Chem, 2024)", "key": {"[1]": {"molecular_target": "T1, von Hippel-Lindau disease tumor suppressor/Ubiquitin carboxyl-terminal hydrolase 7 (Homo sapiens, UniProt Q93009+P40337)", "assay": "PROTACT activity at USP7/VHL in human RS4;11 cells assessed as protein degradation at 10 nM measured after 24 hrs by Western blot analysis relative to control", "type": "cell-based"}, "[2]": {"molecular_target": "T1, von Hippel-Lindau disease tumor suppressor/Ubiquitin carboxyl-terminal hydrolase 7", "assay": "PROTACT activity at USP7/VHL in human RS4;11 cells assessed as protein degradation at 100 nM measured after 24 hrs by Western blot analysis relative to control", "type": "cell-based"}, "[3]": {"molecular_target": "T1, von Hippel-Lindau disease tumor suppressor/Ubiquitin carboxyl-terminal hydrolase 7", "assay": "PROTACT activity at USP7/VHL in human RS4;11 cells assessed as protein degradation measured after 24 hrs by Western blot analysis", "type": "cell-based"}, "[4]": {"molecular_target": "T1, von Hippel-Lindau disease tumor suppressor/Ubiquitin carboxyl-terminal hydrolase 7", "assay": "PROTACT activity at USP7/VHL in human RS4;11 cells assessed as maximal protein degradation measured after 24 hrs by Western blot analysis relative to control", "type": "cell-based"}, "[5]": {"molecular_target": "T1, von Hippel-Lindau disease tumor suppressor/Ubiquitin carboxyl-terminal hydrolase 7", "assay": "PROTACT activity at USP7/VHL in human OCI-Ly10 cells assessed as protein degradation at 10 to 100 nM measured after 12 hrs by Western blot analysis", "type": "cell-based", "conditions": "dose 10-100 nM"}, "[6]": {"molecular_target": "T1, von Hippel-Lindau disease tumor suppressor/Ubiquitin carboxyl-terminal hydrolase 7", "assay": "PROTACT activity at USP7/VHL in human RS4;11 cells assessed as protein degradation at 10 nM measured after 2 to 4 hrs by Western blot analysis", "type": "cell-based", "conditions": "time 2-4 hrs"}, "RS4-11 [7]": {"system": "RS4-11", "assay": "Upregulation of p53 protein expression in human RS4-11 cells measured after 12 hrs incubation by Western blot analysis", "type": "functional, cell-based", "conditions": "dose 10-100 nM"}, "RS4-11 [8]": {"system": "RS4-11", "assay": "Upregulation of p21 protein expression in human RS4-11 cells measured after 12 hrs incubation by Western blot analysis", "type": "functional, cell-based", "conditions": "dose 10-100 nM"}, "[9]": {"molecular_target": "T1, von Hippel-Lindau disease tumor suppressor/Ubiquitin carboxyl-terminal hydrolase 7", "assay": "PROTACT activity at USP7/VHL in human RS4;11 cells assessed as protein degradation at 10 nM measured after 6 hrs in presence of (R)-3-(4-(aminomethyl)phenyl)-6-((4-hydroxy-1-(3-phenylbutanoyl)piperidin-4-yl)methyl)-2-methyl-2,6-dihydro-7H-pyrazolo[4,3-d]pyrimidin-7-one by Western blot analysis", "type": "cell-based"}, "[10]": {"molecular_target": "T1, von Hippel-Lindau disease tumor suppressor/Ubiquitin carboxyl-terminal hydrolase 7", "assay": "PROTACT activity at USP7/VHL in human RS4;11 cells assessed as protein degradation at 10 nM measured after 6 hrs in presence of VHL-binder by Western blot analysis", "type": "cell-based"}, "[11]": {"molecular_target": "T1, von Hippel-Lindau disease tumor suppressor/Ubiquitin carboxyl-terminal hydrolase 7", "assay": "PROTACT activity at USP7/VHL in human RS4;11 cells assessed as protein degradation at 10 nM measured after 6 hrs in presence of NEDD8-activating enzyme inhibitor […] by Western blot analysis", "type": "cell-based"}, "[12]": {"molecular_target": "T1, von Hippel-Lindau disease tumor suppressor/Ubiquitin carboxyl-terminal hydrolase 7", "assay": "PROTACT activity at USP7/VHL in human RS4;11 cells assessed as protein degradation at 10 nM measured after 6 hrs in presence of proteasome inhibitors PS-341 by Western blot analysis", "type": "cell-based"}, "[13]": {"molecular_target": "T1, von Hippel-Lindau disease tumor suppressor/Ubiquitin carboxyl-terminal hydrolase 7", "assay": "PROTACT activity at USP7/VHL in human RS4;11 cells assessed as protein degradation at 10 nM measured after 6 hrs in presence of proteasome inhibitors PS-171 by Western blot analysis", "type": "cell-based"}, "RS4-11 [14]": {"system": "RS4-11", "assay": "Antiproliferative activity against human RS4-11 cells with wild type p53 assessed as cell viability measured after 3 days by PMS-MTS assay", "type": "functional, cell-based", "conditions": "RS4-11, 72 h"}, "RS4-11 [15]": {"system": "RS4-11", "assay": "Antiproliferative activity against human RS4-11 cells with shp53 assessed as cell viability measured after 7 days by PMS-MTS assay", "type": "functional, cell-based", "conditions": "RS4-11, 168 h"}, "REH": {"system": "REH", "assay": "Antiproliferative activity against human REH cells with wild type p53 assessed as cell viability measured after 3 days by PMS-MTS assay", "type": "functional, cell-based", "conditions": "72 h"}, "RS4-11 [16]": {"system": "RS4-11", "assay": "Induction of apoptosis in human RS4-11 cells assessed as late apoptotic cells at 1 nM measured after 72 hrs by FITC-annexin-V/PI analysis (reference value: 3.23%)", "type": "functional"}, "RS4-11 [17]": {"system": "RS4-11", "assay": "Induction of apoptosis in human RS4-11 cells assessed as necrotic cells at 1 nM measured after 72 hrs by FITC-annexin-V/PI analysis (reference value: 0%)", "type": "functional"}, "RS4-11 [18]": {"system": "RS4-11", "assay": "Induction of apoptosis in human RS4-11 cells assessed as viable cells at 10 nM measured after 72 hrs by FITC-annexin-V/PI analysis (reference value: 91.41%)", "type": "functional", "conditions": "read-out: Activity"}, "RS4-11 [19]": {"system": "RS4-11", "assay": "Induction of apoptosis in human RS4-11 cells assessed as early apoptotic cells at 10 nM measured after 72 hrs by FITC-annexin-V/PI analysis (reference value: 5.36%)", "type": "functional"}, "RS4-11 [20]": {"system": "RS4-11", "assay": "Induction of apoptosis in human RS4-11 cells assessed as late apoptotic cells at 10 nM measured after 72 hrs by FITC-annexin-V/PI analysis (reference value: 3.23%)", "type": "functional"}, "RS4-11 [21]": {"system": "RS4-11", "assay": "Induction of apoptosis in human RS4-11 cells assessed as necrotic cells at 10 nM measured after 72 hrs by FITC-annexin-V/PI analysis (reference value: 0%)", "type": "functional"}, "RS4-11 [22]": {"system": "RS4-11", "assay": "Induction of apoptosis in human RS4-11 cells assessed as viable cells at 100 nM measured after 72 hrs by FITC-annexin-V/PI analysis (reference value: 91.41%)", "type": "functional", "conditions": "read-out: Activity"}, "RS4-11 [23]": {"system": "RS4-11", "assay": "Induction of apoptosis in human RS4-11 cells assessed as early apoptotic cells at 100 nM measured after 72 hrs by FITC-annexin-V/PI analysis (reference value: 5.36%)", "type": "functional"}, "RS4-11 [24]": {"system": "RS4-11", "assay": "Induction of apoptosis in human RS4-11 cells assessed as necrotic cells at 100 nM measured after 72 hrs by FITC-annexin-V/PI analysis (reference value: 0%)", "type": "functional"}, "RS4-11 [25]": {"system": "RS4-11", "assay": "Induction of apoptosis in human RS4-11 cells assessed as viable cells at 1000 nM measured after 72 hrs by FITC-annexin-V/PI analysis (reference value: 91.41%)", "type": "functional", "conditions": "read-out: Activity"}, "RS4-11 [26]": {"system": "RS4-11", "assay": "Induction of apoptosis in human RS4-11 cells assessed as early apoptotic cells at 1000 nM measured after 72 hrs by FITC-annexin-V/PI analysis (reference value: 5.36%)", "type": "functional"}, "RS4-11 [27]": {"system": "RS4-11", "assay": "Induction of apoptosis in human RS4-11 cells assessed as late apoptotic cells at 1000 nM measured after 72 hrs by FITC-annexin-V/PI analysis (reference value: 3.23%)", "type": "functional"}, "RS4-11 [28]": {"system": "RS4-11", "assay": "Induction of cell cycle arrest in human RS4-11 cells assessed as assessed as accumulation cells at G1/G0 phase measured after 12 hrs by flow cytometry", "type": "functional, cell-based", "conditions": "dose 1-1000 nM"}, "RS4-11 [29]": {"system": "RS4-11", "assay": "Antitumor activity against human RS4-11 cells xenografted in NOD/SCID mouse model assessed as tumor growth inhibition at 5 mg/kg, ip daily measured after 18 days relative to control", "type": "functional", "conditions": "RS4-11, 432 h, time 18 day, read-out: TGI"}, "RS4-11 [30]": {"system": "RS4-11", "assay": "Antitumor activity against human RS4-11 cells xenografted in NOD/SCID mouse model assessed as tumor growth inhibition at 10 mg/kg, ip daily measured after 18 days relative to control", "type": "functional", "conditions": "RS4-11, 432 h, time 18 day, read-out: TGI"}, "[31]": {"assay": "Toxicity in NOD/SCID mouse xenografted with human RS4-11 cells assessed as body weight change at 5 to 20 mg/kg, ip daily measured after 18 days relative to control", "type": "organism-based", "conditions": "in vivo, 432 h, dose 5-20 mg/kg, time 18 day"}, "RS4-11 [32]": {"system": "RS4-11", "assay": "Antitumor activity against human RS4-11 cells xenografted in NOD/SCID mouse model assessed as decrease in USP7 level in tumor at 5 to 20 mg/kg, ip daily measured after 18 days relative to control", "type": "functional, organism-based", "conditions": "dose 5-20 mg/kg, time 18.0 day"}}, "note": "The source made the active and inactive calls. The calls are words filed in the database; no cut-off is given here.", "data": [{"smiles": "Cc1ncsc1-c1ccc([C@H](C)NC(=O)[C@@H]2C[C@@H](O)CN2C(=O)[C@@H](c2cc(N3CCN(Cc4ccc(-c5c6ncn(CC7(O)CCN(C(=O)C[C@@H](C)c8ccccc8)CC7)c(=O)c6nn5C)cc4)CC3)no2)C(C)C)cc1", "values": [{"measurement": "Activity", "setting": "[1]", "value": 91.6, "unit": "%"}, {"measurement": "Activity", "setting": "[2]", "value": 91.7, "unit": "%"}, {"measurement": "DC50", "setting": "[3]", "value": 0.74, "unit": "nM"}, {"measurement": "Emax", "setting": "[4]", "value": 93.1, "unit": "%"}, {"measurement": "Activity", "setting": "[5]", "value": "Active"}, {"measurement": "Activity", "setting": "[6]", "value": "Active"}, {"measurement": "Activity", "setting": "RS4-11 [7]", "value": "Dose-Dependent Effect"}, {"measurement": "Activity", "setting": "RS4-11 [8]", "value": "Dose-Dependent Effect"}, {"measurement": "Activity", "setting": "[9]", "value": "inactive"}, {"measurement": "Activity", "setting": "[10]", "value": "inactive"}, {"measurement": "Activity", "setting": "[11]", "value": "inactive"}, {"measurement": "Activity", "setting": "[12]", "value": "inactive"}, {"measurement": "Activity", "setting": "[13]", "value": "inactive"}, {"measurement": "IC50", "setting": "RS4-11 [14]", "value": 0.5, "unit": "nM"}, {"measurement": "IC50", "setting": "RS4-11 [15]", "value": "> 20000", "unit": "nM"}, {"measurement": "IC50", "setting": "REH", "value": 8.3, "unit": "nM"}, {"measurement": "Activity", "setting": "RS4-11 [16]", "value": 12.98, "unit": "%"}, {"measurement": "Activity", "setting": "RS4-11 [17]", "value": 0, "unit": "%"}, {"measurement": "viability at 0.01 µM", "setting": "RS4-11 [18]", "value": 65.7, "unit": "%"}, {"measurement": "Activity", "setting": "RS4-11 [19]", "value": 17.36, "unit": "%"}, {"measurement": "Activity", "setting": "RS4-11 [20]", "value": 16.98, "unit": "%"}, {"measurement": "Activity", "setting": "RS4-11 [21]", "value": 0.01, "unit": "%"}, {"measurement": "viability at 0.1 µM", "setting": "RS4-11 [22]", "value": 59.7, "unit": "%"}, {"measurement": "Activity", "setting": "RS4-11 [23]", "value": 19.6, "unit": "%"}, {"measurement": "Activity", "setting": "RS4-11 [24]", "value": 0.01, "unit": "%"}, {"measurement": "viability at 1 µM", "setting": "RS4-11 [25]", "value": 55.3, "unit": "%"}, {"measurement": "Activity", "setting": "RS4-11 [26]", "value": 19.81, "unit": "%"}, {"measurement": "Activity", "setting": "RS4-11 [27]", "value": 24.89, "unit": "%"}, {"measurement": "Activity", "setting": "RS4-11 [28]", "value": "Dose-Dependent Effect"}, {"measurement": "inhibition in vivo at 5 mg/kg", "setting": "RS4-11 [29]", "value": 64.7, "unit": "%"}, {"measurement": "inhibition in vivo at 10 mg/kg", "setting": "RS4-11 [30]", "value": 60.8, "unit": "%"}, {"measurement": "Activity", "setting": "[31]", "value": "Non-Toxic"}, {"measurement": "Activity", "setting": "RS4-11 [32]", "value": "Active"}]}]}
